From ChEMBL document CHEMBL1155446, “Imidazo[4,5-b]pyridine derivatives as inhibitors of Aurora kinases: lead optimization studies toward the identification of an orally bioavailable preclinical development candidate” (J Med Chem, 2010)

Experiments:
[1] = Metabolic stability in CD1 mouse liver microsomes assessed as compound remaining at 10 uM after 30 mins by LC-MS/MS analysis; assay type: ADME, Microsome; settings: read-out: Stability
[2] = target: T1, Aurora kinase A (Homo sapiens, UniProt O14965)
T1 sequence (O14965 whole entry): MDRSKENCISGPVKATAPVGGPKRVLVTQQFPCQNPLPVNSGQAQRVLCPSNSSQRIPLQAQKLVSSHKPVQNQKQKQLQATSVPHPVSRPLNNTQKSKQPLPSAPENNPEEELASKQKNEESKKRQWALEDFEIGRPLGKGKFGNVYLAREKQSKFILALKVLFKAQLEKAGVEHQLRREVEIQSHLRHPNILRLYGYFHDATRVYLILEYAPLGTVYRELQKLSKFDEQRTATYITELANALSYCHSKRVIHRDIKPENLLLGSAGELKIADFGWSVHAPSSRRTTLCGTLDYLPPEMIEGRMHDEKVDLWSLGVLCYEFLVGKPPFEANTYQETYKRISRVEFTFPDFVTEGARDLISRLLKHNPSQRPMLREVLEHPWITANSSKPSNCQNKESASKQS
Description: Inhibition of human recombinant Aurora A expressed in baculovirus system

[3] = system: HCT-116; experiment: Growth inhibition of human HCT116 cells after 72 hrs by MTT assay; assay type: functional; settings: HCT-116, 72 h
[4] = target: Platelet-derived growth factor receptor beta (Homo sapiens) (UniProt P09619); experiment: Inhibition of PDGFRbeta at 1 uM
[5] = target: Hepatocyte growth factor receptor (Homo sapiens) (UniProt P08581); experiment: Inhibition of MET at 1 uM
[6] = target: Vascular endothelial growth factor receptor 2 (Homo sapiens) (UniProt P35968); experiment: Inhibition of KDR at 1 uM
Vascular endothelial growth factor receptor 2 (Homo sapiens), sequence (P35968 whole entry): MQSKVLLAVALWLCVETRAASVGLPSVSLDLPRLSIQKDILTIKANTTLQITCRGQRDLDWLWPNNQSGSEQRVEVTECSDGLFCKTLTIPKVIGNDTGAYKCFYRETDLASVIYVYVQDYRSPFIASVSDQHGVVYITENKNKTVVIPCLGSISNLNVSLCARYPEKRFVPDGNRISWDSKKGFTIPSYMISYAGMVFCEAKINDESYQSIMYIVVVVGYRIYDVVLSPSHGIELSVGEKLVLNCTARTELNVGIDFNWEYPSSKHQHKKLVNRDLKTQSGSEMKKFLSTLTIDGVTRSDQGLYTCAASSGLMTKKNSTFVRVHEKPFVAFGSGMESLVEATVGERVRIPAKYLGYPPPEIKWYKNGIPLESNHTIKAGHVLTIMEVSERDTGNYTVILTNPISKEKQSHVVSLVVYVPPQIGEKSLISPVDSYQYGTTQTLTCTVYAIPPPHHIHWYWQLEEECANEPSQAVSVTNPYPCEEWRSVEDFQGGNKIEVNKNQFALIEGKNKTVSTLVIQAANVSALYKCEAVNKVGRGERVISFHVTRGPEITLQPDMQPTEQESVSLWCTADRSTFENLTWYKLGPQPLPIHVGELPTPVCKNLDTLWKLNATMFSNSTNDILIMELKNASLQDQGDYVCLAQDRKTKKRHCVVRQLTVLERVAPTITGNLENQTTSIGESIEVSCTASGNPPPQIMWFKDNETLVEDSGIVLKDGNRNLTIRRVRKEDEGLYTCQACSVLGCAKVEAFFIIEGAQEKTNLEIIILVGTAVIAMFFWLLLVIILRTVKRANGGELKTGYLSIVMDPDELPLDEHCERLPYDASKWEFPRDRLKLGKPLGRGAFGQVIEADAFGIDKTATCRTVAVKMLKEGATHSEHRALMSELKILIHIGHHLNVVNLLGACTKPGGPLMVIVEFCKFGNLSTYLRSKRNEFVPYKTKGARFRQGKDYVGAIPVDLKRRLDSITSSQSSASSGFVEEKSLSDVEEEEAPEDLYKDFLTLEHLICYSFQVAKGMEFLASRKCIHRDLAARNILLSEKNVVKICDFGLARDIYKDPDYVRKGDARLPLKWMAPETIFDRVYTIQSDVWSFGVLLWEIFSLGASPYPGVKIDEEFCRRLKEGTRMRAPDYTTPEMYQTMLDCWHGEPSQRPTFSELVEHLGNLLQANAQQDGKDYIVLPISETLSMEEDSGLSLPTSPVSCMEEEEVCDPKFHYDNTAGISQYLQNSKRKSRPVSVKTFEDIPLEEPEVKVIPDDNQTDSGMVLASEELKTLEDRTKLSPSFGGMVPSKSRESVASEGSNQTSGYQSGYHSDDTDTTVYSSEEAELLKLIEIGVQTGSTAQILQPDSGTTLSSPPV

[7] = target: Angiopoietin-1 receptor (Homo sapiens) (UniProt Q02763); experiment: Inhibition of TEK at 1 uM
[8] = target: T2, Aurora kinase A (Homo sapiens) (UniProt O14965); experiment: Inhibition of Aurora A at 1 uM
T2 sequence (whole entry): T1 sequence (O14965 whole entry)

[9] = target: Tyrosine-protein kinase Lck (Homo sapiens) (UniProt P06239); experiment: Inhibition of LCK at 1 uM
Tyrosine-protein kinase Lck (Homo sapiens), sequence (P06239 2-509 limits assumed): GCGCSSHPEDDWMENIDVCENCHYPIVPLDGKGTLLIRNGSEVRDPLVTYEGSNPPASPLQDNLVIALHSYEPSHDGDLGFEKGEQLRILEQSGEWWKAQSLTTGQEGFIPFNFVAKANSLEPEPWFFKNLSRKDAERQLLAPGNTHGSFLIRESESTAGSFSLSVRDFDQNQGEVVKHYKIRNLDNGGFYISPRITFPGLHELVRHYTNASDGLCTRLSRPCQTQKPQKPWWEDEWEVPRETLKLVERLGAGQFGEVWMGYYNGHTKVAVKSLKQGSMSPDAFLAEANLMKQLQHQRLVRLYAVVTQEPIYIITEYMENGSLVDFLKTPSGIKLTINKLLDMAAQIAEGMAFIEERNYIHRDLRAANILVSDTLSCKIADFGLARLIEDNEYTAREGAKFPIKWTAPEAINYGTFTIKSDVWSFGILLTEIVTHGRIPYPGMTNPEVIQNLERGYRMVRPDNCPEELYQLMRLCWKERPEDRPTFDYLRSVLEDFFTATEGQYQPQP

[10] = target: hERG (KCNH2) (Homo sapiens, UniProt Q12809); experiment: (§1) Inhibition of human ERG at 10 uM
hERG (KCNH2), sequence (Q12809 whole entry): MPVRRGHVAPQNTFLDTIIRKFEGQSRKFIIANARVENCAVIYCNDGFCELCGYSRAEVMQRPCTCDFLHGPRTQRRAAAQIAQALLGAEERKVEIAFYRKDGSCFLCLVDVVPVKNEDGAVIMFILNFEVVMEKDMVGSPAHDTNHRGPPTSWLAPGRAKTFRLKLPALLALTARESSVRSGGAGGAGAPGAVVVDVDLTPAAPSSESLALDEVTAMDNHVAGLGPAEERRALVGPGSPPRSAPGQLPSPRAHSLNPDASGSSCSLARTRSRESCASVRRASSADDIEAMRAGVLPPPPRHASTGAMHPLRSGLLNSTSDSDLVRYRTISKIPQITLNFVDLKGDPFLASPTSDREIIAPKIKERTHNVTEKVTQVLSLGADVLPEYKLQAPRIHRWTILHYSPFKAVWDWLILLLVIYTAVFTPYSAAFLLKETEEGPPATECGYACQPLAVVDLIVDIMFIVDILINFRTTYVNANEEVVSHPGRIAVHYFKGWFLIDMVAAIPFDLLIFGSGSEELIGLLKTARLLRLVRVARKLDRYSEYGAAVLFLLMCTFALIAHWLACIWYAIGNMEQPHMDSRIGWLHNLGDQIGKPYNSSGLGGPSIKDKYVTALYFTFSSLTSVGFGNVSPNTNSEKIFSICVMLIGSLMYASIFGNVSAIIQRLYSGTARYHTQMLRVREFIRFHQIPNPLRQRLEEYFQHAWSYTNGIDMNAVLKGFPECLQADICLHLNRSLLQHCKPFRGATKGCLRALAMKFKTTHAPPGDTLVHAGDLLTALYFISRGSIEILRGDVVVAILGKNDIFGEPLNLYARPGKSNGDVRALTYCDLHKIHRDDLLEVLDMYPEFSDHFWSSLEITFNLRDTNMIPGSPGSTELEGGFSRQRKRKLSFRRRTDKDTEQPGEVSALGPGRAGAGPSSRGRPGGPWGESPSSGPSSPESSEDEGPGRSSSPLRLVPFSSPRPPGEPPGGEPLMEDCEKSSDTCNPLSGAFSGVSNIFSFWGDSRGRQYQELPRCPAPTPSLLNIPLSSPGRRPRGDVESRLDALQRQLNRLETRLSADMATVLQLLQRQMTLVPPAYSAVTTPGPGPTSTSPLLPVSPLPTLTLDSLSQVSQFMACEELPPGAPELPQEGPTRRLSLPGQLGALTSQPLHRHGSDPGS

[11] = target: T3, Ephrin type-B receptor 4 (Homo sapiens) (UniProt P54760); experiment: Inhibition of EPHB4 at 1 uM
T3 sequence (whole entry): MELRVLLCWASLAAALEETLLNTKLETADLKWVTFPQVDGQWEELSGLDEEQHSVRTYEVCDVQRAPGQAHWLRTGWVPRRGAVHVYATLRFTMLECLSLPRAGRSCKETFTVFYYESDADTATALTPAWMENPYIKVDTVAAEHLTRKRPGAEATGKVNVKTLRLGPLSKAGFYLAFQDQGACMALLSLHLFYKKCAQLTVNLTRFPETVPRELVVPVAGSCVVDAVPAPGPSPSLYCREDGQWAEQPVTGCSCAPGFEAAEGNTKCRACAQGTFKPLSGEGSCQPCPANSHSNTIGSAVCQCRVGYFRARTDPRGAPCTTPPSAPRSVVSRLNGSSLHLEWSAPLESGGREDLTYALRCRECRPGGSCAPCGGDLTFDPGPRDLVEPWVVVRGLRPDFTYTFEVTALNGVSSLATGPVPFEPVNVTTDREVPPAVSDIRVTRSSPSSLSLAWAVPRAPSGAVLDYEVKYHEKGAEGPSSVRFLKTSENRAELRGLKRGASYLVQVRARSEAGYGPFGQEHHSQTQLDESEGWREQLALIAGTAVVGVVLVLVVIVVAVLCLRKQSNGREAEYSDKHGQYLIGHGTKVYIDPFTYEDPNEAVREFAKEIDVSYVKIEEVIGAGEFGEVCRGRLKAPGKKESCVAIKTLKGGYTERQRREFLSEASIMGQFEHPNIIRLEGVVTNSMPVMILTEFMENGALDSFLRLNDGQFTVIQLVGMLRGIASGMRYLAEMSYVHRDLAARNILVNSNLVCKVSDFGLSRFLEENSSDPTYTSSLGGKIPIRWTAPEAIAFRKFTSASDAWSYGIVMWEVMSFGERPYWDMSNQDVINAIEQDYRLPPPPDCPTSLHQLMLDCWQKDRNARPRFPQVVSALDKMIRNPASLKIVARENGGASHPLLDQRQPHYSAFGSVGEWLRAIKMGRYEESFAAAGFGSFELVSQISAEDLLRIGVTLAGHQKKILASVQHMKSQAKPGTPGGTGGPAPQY

[12] = target: Vascular endothelial growth factor receptor 1 (Homo sapiens) (UniProt P17948); experiment: Inhibition of FLT1 at 1 uM
Vascular endothelial growth factor receptor 1 (Homo sapiens), sequence (P17948 whole entry): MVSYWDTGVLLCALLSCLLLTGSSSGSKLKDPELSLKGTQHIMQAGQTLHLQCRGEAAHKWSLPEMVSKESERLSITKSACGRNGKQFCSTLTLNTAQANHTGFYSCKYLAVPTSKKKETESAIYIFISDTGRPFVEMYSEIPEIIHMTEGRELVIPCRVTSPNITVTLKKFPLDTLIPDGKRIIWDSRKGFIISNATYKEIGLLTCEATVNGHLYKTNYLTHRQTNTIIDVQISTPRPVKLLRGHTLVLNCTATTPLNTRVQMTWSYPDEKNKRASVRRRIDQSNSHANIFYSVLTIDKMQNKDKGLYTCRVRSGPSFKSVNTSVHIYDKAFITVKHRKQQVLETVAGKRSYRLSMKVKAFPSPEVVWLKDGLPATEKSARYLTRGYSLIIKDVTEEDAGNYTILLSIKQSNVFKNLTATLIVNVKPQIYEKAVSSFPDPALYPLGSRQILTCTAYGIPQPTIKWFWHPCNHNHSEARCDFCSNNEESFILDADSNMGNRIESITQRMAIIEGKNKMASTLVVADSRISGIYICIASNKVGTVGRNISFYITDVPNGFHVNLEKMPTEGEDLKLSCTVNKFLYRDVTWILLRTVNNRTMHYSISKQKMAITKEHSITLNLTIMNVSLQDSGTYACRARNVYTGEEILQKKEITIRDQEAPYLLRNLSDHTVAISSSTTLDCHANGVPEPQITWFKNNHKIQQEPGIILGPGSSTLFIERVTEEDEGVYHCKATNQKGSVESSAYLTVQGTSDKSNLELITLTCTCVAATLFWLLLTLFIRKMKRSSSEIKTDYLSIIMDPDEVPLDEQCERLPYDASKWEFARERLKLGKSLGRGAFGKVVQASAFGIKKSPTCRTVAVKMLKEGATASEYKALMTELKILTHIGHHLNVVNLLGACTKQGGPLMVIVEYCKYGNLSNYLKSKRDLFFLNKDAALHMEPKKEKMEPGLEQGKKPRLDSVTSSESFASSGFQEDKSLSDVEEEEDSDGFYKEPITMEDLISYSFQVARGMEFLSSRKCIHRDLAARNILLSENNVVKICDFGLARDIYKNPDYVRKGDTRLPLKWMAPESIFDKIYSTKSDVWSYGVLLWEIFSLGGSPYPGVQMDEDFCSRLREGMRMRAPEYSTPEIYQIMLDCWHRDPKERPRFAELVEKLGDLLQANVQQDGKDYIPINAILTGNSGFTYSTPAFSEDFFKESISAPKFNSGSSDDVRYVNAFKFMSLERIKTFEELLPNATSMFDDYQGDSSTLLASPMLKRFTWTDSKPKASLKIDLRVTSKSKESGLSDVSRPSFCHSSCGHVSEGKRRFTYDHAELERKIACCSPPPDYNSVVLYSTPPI

[13] = target: High affinity nerve growth factor receptor (Homo sapiens) (UniProt P04629); experiment: Inhibition of NTRK1 at 1 uM
High affinity nerve growth factor receptor (Homo sapiens), sequence (P04629 33-796 limits assumed): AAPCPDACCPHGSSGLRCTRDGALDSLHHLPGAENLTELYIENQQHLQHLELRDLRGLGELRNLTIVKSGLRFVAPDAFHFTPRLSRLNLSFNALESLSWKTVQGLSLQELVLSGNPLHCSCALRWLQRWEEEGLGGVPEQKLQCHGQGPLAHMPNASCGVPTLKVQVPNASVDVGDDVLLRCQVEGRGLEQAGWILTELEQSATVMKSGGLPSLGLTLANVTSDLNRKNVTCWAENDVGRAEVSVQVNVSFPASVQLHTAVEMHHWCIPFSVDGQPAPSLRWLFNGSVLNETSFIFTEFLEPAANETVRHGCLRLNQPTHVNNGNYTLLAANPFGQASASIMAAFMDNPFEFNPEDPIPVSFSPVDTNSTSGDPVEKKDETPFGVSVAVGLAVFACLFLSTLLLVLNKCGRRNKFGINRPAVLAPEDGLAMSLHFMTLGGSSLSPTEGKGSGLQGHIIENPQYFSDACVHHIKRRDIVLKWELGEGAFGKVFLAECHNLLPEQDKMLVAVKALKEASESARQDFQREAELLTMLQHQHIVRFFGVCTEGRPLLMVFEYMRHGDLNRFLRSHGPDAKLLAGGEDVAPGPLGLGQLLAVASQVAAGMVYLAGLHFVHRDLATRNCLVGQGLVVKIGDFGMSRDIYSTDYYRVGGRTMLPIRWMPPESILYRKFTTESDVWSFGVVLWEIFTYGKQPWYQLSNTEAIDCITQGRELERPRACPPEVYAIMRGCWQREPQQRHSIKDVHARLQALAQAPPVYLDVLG

[14] = target: Aurora kinase B (Homo sapiens) (UniProt Q96GD4); experiment: Inhibition of Aurora B at 1 uM
[15] = Oral bioavailability in BALB/c mouse at 5 mg/kg; assay type: ADME, organism-based; settings: in vivo
[16] = target: Voltage-gated inwardly rectifying potassium channel KCNH2 (Homo sapiens, UniProt Q12809); experiment: as §1; settings: 10 µM
[17] = Aqueous solubility of the compound; assay type: physicochemical; settings: buffer
[18] = Permeability by PAMPA assay; assay type: ADME; settings: read-out: permeability
[19] = system: HCT-116; experiment: Growth inhibition of human HCT116 cells at 10 uM after 72 hrs by MTT assay; assay type: functional; settings: HCT-116, 72 h, read-out: GI

Row | SMILES | remaining at 0.5 h, 10 µM [1] [%] | IC50 [2] [nM] | GI50 [3] [nM] | further results
1 | Cc1cc(CN2CCN(c3c(Cl)cnc4nc(-c5ccc(CN)cc5)[nH]c34)CC2)no1 | > 50 | 55 | 650 | 
2 | Clc1ccc(CN2CCN(c3c(Br)cnc4[nH]c(-c5ccc(CN6CCOCC6)cc5)nc34)CC2)cc1 |  |  | 600 | inhibition [4]: 15%; inhibition [5]: 3%; inhibition [6]: 35%; inhibition [7]: 5%; inhibition [8]: 98%; inhibition [9]: 8%; inhibition at 10 µM [10]: 53%; inhibition [11]: 4%; inhibition [12]: 35%; inhibition [13]: 33%; inhibition [14]: 60%
3 | CN(C)c1ccc(-c2nc3c(N4CCNCC4)c(Br)cnc3[nH]2)cc1 |  | 365 | 950 | 
4 | Cc1cc(CN2CCN(c3c(Br)cnc4[nH]c(-c5ccc(CN6CCOCC6)cc5)nc34)CC2)no1 |  | 2 | 60 | 
5 | Cc1cc(CN2CCN(c3c(Br)cnc4[nH]c(-c5ccc(CN)cc5)nc34)CC2)no1 | > 50 | 10 | 240 | 
6 | Cc1cc(CN2CCN(c3c(Br)cnc4[nH]c(-c5ccc(N6CCNCC6)cc5)nc34)CC2)no1 | > 50 |  | 100 | 
7 | Brc1cnc2[nH]c(-c3ccc(CN4CCOCC4)cc3)nc2c1N1CCN(Cc2cncnc2)CC1 |  | 6 | 420 | 
8 | COc1ccc(-c2nc3c(N4CCN(Cc5cc(C)on5)CC4)c(Br)cnc3[nH]2)cc1 | > 50 | 17 | 540 | bioavailability [15]: 23%; inhibition (INH) [16]: Not Active; solubility [17]: < 10 µg/mL; Papp [18]: 6 ×10⁻⁶ cm/s
9 | CN(C)c1ccc(-c2nc3c(N4CCN(CC(=O)Nc5ccccc5)CC4)c(Cl)cnc3[nH]2)cc1 |  | 115 | 2550 | 
10 | CN(C)c1ccc(-c2nc3c(N4CCN(c5ccccc5)CC4)c(Br)cnc3[nH]2)cc1 |  | 258 |  | 
11 | Cc1cc(CN2CCN(c3c(Cl)cnc4nc(-c5ccc(OCCO)cc5)[nH]c34)CC2)no1 | > 50 | 20 | 450 | 
12 | Brc1cnc2[nH]c(-c3ccc(CN4CCOCC4)cc3)nc2c1N1CCN(Cc2cscn2)CC1 |  | 6 |  | 
13 | COc1ccc(-c2nc3c(N4CCN(Cc5cncnc5)CC4)c(Br)cnc3[nH]2)cc1 |  | 8 | 400 | 

Second part, led by results:

Row | remaining at 0.5 h, 10 µM [1] [%] | IC50 [2] [nM] | GI50 [3] [nM] | SMILES | further results
14 | 45 | 4 | 320 | COc1ccc(-c2nc3c(N4CCN(Cc5cscn5)CC4)c(Br)cnc3[nH]2)cc1 | 
15 |  | 118 | 1650 | CN(C)c1ccc(-c2nc3c(N4CCN(CC(=O)Nc5cccnc5)CC4)c(Br)cnc3[nH]2)cc1 | 
16 |  | 50 | 1030 | CN(C)c1ccc(-c2nc3c(N4CCN(CC(=O)Nc5nccs5)CC4)c(C#N)cnc3[nH]2)cc1 | 
17 |  | 32 | 1500 | COc1ccc(-c2nc3c(N4CCN(Cc5nccn5C)CC4)c(Br)cnc3[nH]2)cc1 | 
18 |  | 55 | 480 | CN(C)c1ccc(-c2nc3c(N4CCN(CC(=O)Nc5nccs5)CC4)c(Br)cnc3[nH]2)cc1 | 
19 |  | 53 | 2500 | COc1ccc(-c2nc3ncc(C4CC4)c(N4CCN(CC(=O)Nc5nccs5)CC4)c3[nH]2)cc1 | 
20 |  | 517 |  | O=C(CN1CCN(c2c(Br)cnc3[nH]cnc23)CC1)Nc1nccs1 | inhibition of growth at 10 µM [19]: 40%
